Experimental data: US20240115527A1, “CXCR1/CXCR2 INHIBITORS FOR USE IN TREATING MYELOFIBROSIS” (Icahn School of Medicine at Mount Sinai, priority 2020, published 2024)

Experiments:
Format in all cases: cell-based, human
[1] = test system: MF CD34+ cells; assay: Clonal assays of MF CD34+ cells; JAK2V617F allele status of picked hematopoietic colonies
Experimental: Individual hematopoietic colonies were randomly picked from clonal assays of CD34^+ cells from 6 MF cases and the JAK2V617F allele status was determined.
IL-8 alone increased the absolute numbers of JAK2V617F+ colonies, and the addition of Ladarixin reduced the numbers of JAK2V617F positive colonies stimulated by IL-8 (Tables 1-3).

[2] = test system: MF CD34+, CD41+ and CD33+ cells; assay: Proliferation and lineage differentiation of MF mononuclear cells cultured with IL-8, flow cytometry; conditions: ladarixin added to IL-8 culture, FIG. 4A
Experimental: To evaluate the effects of IL-8 on MF CD34^+ cells proliferation and lineage differentiation, MF mononuclear cells (MNC cells) were cultured with StemSpan™ Serum-Free Expansion Medium (SFEM) containing 20 ng/ml of stem cell factor (SCF), thrombopoietin (TPO), FL-3L and IL-3 with or without 50 ng/ml of IL-8. The cells were harvested after 3 days of incubation. The proportion of hematopoietic cells belonging to specific lineages were determined using flow cytometry.

[3] = test system: normal donor CD34+ cells; assay: Proliferation and lineage differentiation of normal donor cells cultured with IL-8, flow cytometry; conditions: ladarixin added to IL-8 culture, FIG. 4A
[4] = test system: normal CD34+ cells; assay: Hematopoietic colony formation by normal CD34+ cells with IL-8; conditions: addition of ladarixin, FIG. 5B
[5] = MF1 CD34+ cells, ladarixin 10 μM + IL-8 10 ng
[6] = MF1 CD34+ cells, ladarixin 10 μM + IL-8 20 ng
[7] = MF1 CD34+ cells, ladarixin 10 μM + IL-8 50 ng
[8] = MF1 CD34+ cells, ladarixin 10 μM + IL-8 100 ng
[9] = MF1 CD34+ cells, ladarixin 10 μM, no IL-8
[10] = MF1 CD34+ cells, ladarixin 20 μM + IL-8 20 ng
[11] = MF1 CD34+ cells, ladarixin 20 μM, no IL-8
[12] = MF2 CD34+ cells, ladarixin 10 μM + IL-8 10 ng
[13] = MF2 CD34+ cells, ladarixin 10 μM + IL-8 20 ng
[14] = MF2 CD34+ cells, ladarixin 10 μM + IL-8 50 ng
[15] = MF2 CD34+ cells, ladarixin 10 μM + IL-8 100 ng
[16] = MF2 CD34+ cells, ladarixin 10 μM, no IL-8
[17] = MF2 CD34+ cells, ladarixin 20 μM + IL-8 20 ng
[18] = MF2 CD34+ cells, ladarixin 20 μM, no IL-8
[19] = MF3 CD34+ cells, ladarixin 10 μM + IL-8 10 ng
[20] = MF3 CD34+ cells, ladarixin 10 μM + IL-8 20 ng
[21] = MF3 CD34+ cells, ladarixin 10 μM + IL-8 50 ng
[22] = MF3 CD34+ cells, ladarixin 10 μM + IL-8 100 ng
[23] = MF3 CD34+ cells, ladarixin 10 μM, no IL-8
[24] = MF3 CD34+ cells, ladarixin 20 μM + IL-8 20 ng
[25] = MF3 CD34+ cells, ladarixin 20 μM, no IL-8
[26] = MF4 CD34+ cells, ladarixin 10 μM + IL-8 10 ng
[27] = MF4 CD34+ cells, ladarixin 10 μM + IL-8 20 ng
[28] = MF4 CD34+ cells, ladarixin 10 μM + IL-8 50 ng
[29] = MF4 CD34+ cells, ladarixin 10 μM + IL-8 100 ng
[30] = MF4 CD34+ cells, ladarixin 10 μM, no IL-8
[31] = MF4 CD34+ cells, ladarixin 20 μM + IL-8 20 ng
[32] = MF4 CD34+ cells, ladarixin 20 μM, no IL-8
[33] = MF5 CD34+ cells, ladarixin 10 μM + IL-8 10 ng
[34] = MF5 CD34+ cells, ladarixin 10 μM + IL-8 20 ng
[35] = MF5 CD34+ cells, ladarixin 10 μM + IL-8 50 ng
[36] = MF5 CD34+ cells, ladarixin 10 μM + IL-8 100 ng
[37] = MF5 CD34+ cells, ladarixin 10 μM, no IL-8
[38] = MF5 CD34+ cells, ladarixin 20 μM + IL-8 20 ng
[39] = MF5 CD34+ cells, ladarixin 20 μM, no IL-8
[40] = MF6 CD34+ cells, ladarixin 10 μM + IL-8 10 ng
[41] = MF6 CD34+ cells, ladarixin 10 μM + IL-8 20 ng
[42] = MF6 CD34+ cells, ladarixin 10 μM + IL-8 50 ng
[43] = MF6 CD34+ cells, ladarixin 10 μM + IL-8 100 ng
[44] = MF6 CD34+ cells, ladarixin 10 μM, no IL-8
[45] = MF6 CD34+ cells, ladarixin 20 μM + IL-8 20 ng
[46] = MF6 CD34+ cells, ladarixin 20 μM, no IL-8

C[C@@H](C(=O)NS(C)(=O)=O)c1ccc(OS(=O)(=O)C(F)(F)F)cc1 [Ladarixin, R(-)-2-[(4′-trifluoromethanesulfonyloxy)phenyl]-N-methanesulfonyl propionamide] was tested, and the “number of colonies, Heter (JAK2V617F heterozygous)” value (from here on “number of colonies, Heter”) [1, 5] was 54, the “number of colonies, Homo (JAK2V617F homozygous)” value (from here on “number of colonies, Homo”) [1, 5] was 8 and the “number of colonies, WT (JAK2 wild type)” value [1, 5] was 0. The “number of colonies, Heter” value [1, 6] was 56, the “number of colonies, Homo” value [1, 6] was 4 and the “number of colonies, WT (JAK2 wild type)” value [1, 6] was 4. The “number of colonies, Heter” value [1, 7] was 62, the “number of colonies, Homo” value [1, 7] was 5 and the “number of colonies, WT (JAK2 wild type)” value [1, 7] was 0. The “number of colonies, Heter” value [1, 8] was 58, the “number of colonies, Homo” value [1, 8] was 8 and the “number of colonies, WT (JAK2 wild type)” value [1, 8] was 0. For the same compound, the “number of colonies, Heter” value [1, 9] was 49, the “number of colonies, Homo” value [1, 9] was 4 and the “number of colonies, WT (JAK2 wild type)” value [1, 9] was 0. The “number of colonies, Heter” value [1, 10] was 49, the “number of colonies, Homo” value [1, 10] was 4 and the “number of colonies, WT (JAK2 wild type)” value [1, 10] was 9. The “number of colonies, Heter” value [1, 11] was 43, the “number of colonies, Homo” value [1, 11] was 0 and the “number of colonies, WT (JAK2 wild type)” value [1, 11] was 16. For the same compound, the “number of colonies, Heter” value [1, 12] was 0, the “number of colonies, Homo” value [1, 12] was 0 and the “number of colonies, WT (JAK2 wild type)” value [1, 12] was 49. The “number of colonies, Heter” value [1, 13] was 3, the “number of colonies, Homo” value [1, 13] was 0 and the “number of colonies, WT (JAK2 wild type)” value [1, 13] was 35. For the same compound, the “number of colonies, Heter” value [1, 14] was 0, the “number of colonies, Homo” value [1, 14] was 0 and the “number of colonies, WT (JAK2 wild type)” value [1, 14] was 44. For the same compound, the “number of colonies, Heter” value [1, 15] was 0, the “number of colonies, Homo” value [1, 15] was 0 and the “number of colonies, WT (JAK2 wild type)” value [1, 15] was 46. The “number of colonies, Heter” value [1, 16] was 0, the “number of colonies, Homo” value [1, 16] was 0 and the “number of colonies, WT (JAK2 wild type)” value [1, 16] was 36. The “number of colonies, Heter” value [1, 17] was 0, the “number of colonies, Homo” value [1, 17] was 0 and the “number of colonies, WT (JAK2 wild type)” value [1, 17] was 47. The “number of colonies, Heter” value [1, 18] was 0, the “number of colonies, Homo” value [1, 18] was 0 and the “number of colonies, WT (JAK2 wild type)” value [1, 18] was 44. The “number of colonies, Heter” value [1, 19] was 110, the “number of colonies, Homo” value [1, 19] was 17 and the “number of colonies, WT (JAK2 wild type)” value [1, 19] was 8. The “number of colonies, Heter” value [1, 20] was 17, the “number of colonies, Homo” value [1, 20] was 69 and the “number of colonies, WT (JAK2 wild type)” value [1, 20] was 51. For the same compound, the “number of colonies, Heter” value [1, 21] was 50, the “number of colonies, Homo” value [1, 21] was 67 and the “number of colonies, WT (JAK2 wild type)” value [1, 21] was 34. The “number of colonies, Heter” value [1, 22] was 0, the “number of colonies, Homo” value [1, 22] was 109 and the “number of colonies, WT (JAK2 wild type)” value [1, 22] was 49. For the same compound, the “number of colonies, Heter” value [1, 23] was 13, the “number of colonies, Homo” value [1, 23] was 73 and the “number of colonies, WT (JAK2 wild type)” value [1, 23] was 13. The “number of colonies, Heter” value [1, 24] was 0, the “number of colonies, Homo” value [1, 24] was 70 and the “number of colonies, WT (JAK2 wild type)” value [1, 24] was 53. For the same compound, the “number of colonies, Heter” value [1, 25] was 28, the “number of colonies, Homo” value [1, 25] was 49 and the “number of colonies, WT (JAK2 wild type)” value [1, 25] was 35. The “number of colonies, Heter” value [1, 26] was 137, the “number of colonies, Homo” value [1, 26] was 0 and the “number of colonies, Wild (JAK2 wild type)” value (shortened to “number of colonies, Wild”) [1, 26] was 0. For the same compound, the “number of colonies, Heter” value [1, 27] was 113, the “number of colonies, Homo” value [1, 27] was 0 and the “number of colonies, Wild” value [1, 27] was 0. For the same compound, the “number of colonies, Heter” value [1, 28] was 137, the “number of colonies, Homo” value [1, 28] was 0 and the “number of colonies, Wild” value [1, 28] was 0. For the same compound, the “number of colonies, Heter” value [1, 29] was 112, the “number of colonies, Homo” value [1, 29] was 7 and the “number of colonies, Wild” value [1, 29] was 0. The “number of colonies, Heter” value [1, 30] was 163, the “number of colonies, Homo” value [1, 30] was 23 and the “number of colonies, Wild” value [1, 30] was 0. The “number of colonies, Heter” value [1, 31] was 134, the “number of colonies, Homo” value [1, 31] was 0 and the “number of colonies, Wild” value [1, 31] was 0. For the same compound, the “number of colonies, Heter” value [1, 32] was 142, the “number of colonies, Homo” value [1, 32] was 0 and the “number of colonies, Wild” value [1, 32] was 0. For the same compound, the “number of colonies, Heter” value [1, 33] was 0, the “number of colonies, Homo” value [1, 33] was 0 and the “number of colonies, Wild” value [1, 33] was 148. The “number of colonies, Heter” value [1, 34] was 0, the “number of colonies, Homo” value [1, 34] was 0 and the “number of colonies, Wild” value [1, 34] was 138. For the same compound, the “number of colonies, Heter” value [1, 35] was 0, the “number of colonies, Homo” value [1, 35] was 0 and the “number of colonies, Wild” value [1, 35] was 151. The “number of colonies, Heter” value [1, 36] was 0, the “number of colonies, Homo” value [1, 36] was 0 and the “number of colonies, Wild” value [1, 36] was 144. The “number of colonies, Heter” value [1, 37] was 0, the “number of colonies, Homo” value [1, 37] was 0 and the “number of colonies, Wild” value [1, 37] was 107. For the same compound, the “number of colonies, Heter” value [1, 38] was 0, the “number of colonies, Homo” value [1, 38] was 0 and the “number of colonies, Wild” value [1, 38] was 131. The “number of colonies, Heter” value [1, 39] was 0, the “number of colonies, Homo” value [1, 39] was 0 and the “number of colonies, Wild” value [1, 39] was 141. The “number of colonies, Heter” value [1, 40] was 0, the “number of colonies, Homo” value [1, 40] was 0 and the “number of colonies, Wild” value [1, 40] was 119. For the same compound, the “number of colonies, Heter” value [1, 41] was 0, the “number of colonies, Homo” value [1, 41] was 0 and the “number of colonies, Wild” value [1, 41] was 121. The “number of colonies, Heter” value [1, 42] was 0, the “number of colonies, Homo” value [1, 42] was 0 and the “number of colonies, Wild” value [1, 42] was 122. For the same compound, the “number of colonies, Heter” value [1, 43] was 0, the “number of colonies, Homo” value [1, 43] was 0 and the “number of colonies, Wild” value [1, 43] was 119. For the same compound, the “number of colonies, Heter” value [1, 44] was 0, the “number of colonies, Homo” value [1, 44] was 0 and the “number of colonies, Wild” value [1, 44] was 119. The “number of colonies, Heter” value [1, 45] was 0, the “number of colonies, Homo” value [1, 45] was 0 and the “number of colonies, Wild” value [1, 45] was 106. For the same compound, the “number of colonies, Heter” value [1, 46] was 0, the “number of colonies, Homo” value [1, 46] was 0 and the “number of colonies, Wild” value [1, 46] was 105. For the same compound, the “numbers of JAK2V617F positive colonies stimulated by IL-8” value ([1]; addition of Ladarixin, 6 MF cases) was “reduced”, the “effect on IL-8 induced change of percentage of MF CD34+, CD41+ and CD33+ cells” value [2] was “reversed the effects of IL-8” and the “effect on IL-8 induced change of normal CD34+, CD41+ and CD33+ cell populations” value [3] was “reversed the effects of IL-8”. For the same compound, the “hematopoietic colony formation by normal CD34+ cells” value [4] was “did not affect”.
